Results reported in patent publication US4416885A, “Use of isopropylaminopyrimidine in the chemotherapy of muscular dystrophy, myopathy and myotonia” (priority 1982, dated 1983).

Assays:
Dystrophic monocytes = assay: Effect on human monocytes in culture (flat cells), dystrophic; assay type: cell-based; details: dystrophic monocyte + dibutryl c-GMP, one individual; untreated dystrophic 36.2%; preliminary
[1] = system: dystrophic 413 muscle explants; assay: Microtubule complexes in muscle explants of injected dystrophic chickens; assay type: in vivo, chicken; details: dystrophic 413 chickens, 28 days of dilantin injections
Excerpt: Essentially, these experiments were divided into three subgroups, taken from the previous Table:
413A, 413B, 412A, 412B: All were sacrificed after 4 injections and muscle explants placed in culture.
413C, 412C: All were sacrificed after 8 injections and muscle explants were placed in culture.
413D, 412D: All were sacrificed after 10 injections and muscle explants placed in culture.
All explants were placed in CMRL culture medium containing 5% horse serum, 15% fetal bovine serum and 1% antibiotics and allowed to grow for 5-7 days before being fixed and observed for the presence or absence of microtubules. No IAPP was added to the culture medium during the 5-7 days in culture.

[2] = system: dystrophic New Hampshire chickens, line 413; assay: Overall assessment of chemotherapy over all parameters measured; assay type: in vivo, chicken; details: 413 chickens, after 28 days of dilantin injections
Procedure: The compound IAPP was tested on dystrophic New Hampshire chickens, line 413, and Imperial College (London, England) sub-line of the original Davis, University of California strain. The chickens are homozygous for muscular dystrophy, the disease appearing with 100% incidence.
Chemotherapy was assessed by application of seven different parameters: physical tests of muscular disability, namely the flip test and wing apposition (W.A.) measurements; biochemical assays of serum and muscle enzume levels of creatine phosphokinase (CPK), pyruvate kinase (PK) and acetylcholinesterase (AChE); and histological comparisons of treated and untreated muscle. Toxicity studies (weight loss, etc.) were also used. A very comprehensive profile of the drug was thus obtained which related to all the known, highly characteristic features of the disease which are applicable to both the animal model and the human. […]

SMILES | % Flat Cells (Dystrophic monocytes) [%] | Correction of microtubule defect in explants [1] | Appearance of dystrophic chickens [2]
CCCC(=O)Nc1nc2c(ncn2[C@@H]2O[C@@H]3COP(=O)(O)O[C@H]3[C@H]2OC(=O)CCC)c(=O)[nH]1 [dibutryl c-GMP, reference compound] | 52.0 |  | 
O=C1NC(=O)C(c2ccccc2)(c2ccccc2)N1 [dilantin, reference compound] |  | did not have their microtubule defect corrected | Some dystrophic 413 chickens appeared normal
